Patent US20260355199A1, “COMPOSITIONS AND METHODS FOR TREATING OR PREVENTING NONALCOHOLIC STEATOHEPATITIS (NASH), ANOREXIA, DEPRESSION, ENDOMETRIOSIS, AND OTHER DISEASES OR DISORDERS” (priority 2022, published 2026)
“Also recorded” adds a separate entry of the source.

Legend:
[1] = test system: let-7a; assay: let-7a miRNA in endometriosis, NASH liver and lung tumor tissues; type: in vivo, mouse; conditions: lung cancer tissues
Procedure: For let-7a qPCR, 10 ng of total RNA was reverse transcribed to cDNA in a reaction volume of 10 μl using miRCURY LNA RT Kit (QIAGEN, 339340). Quantitative real-time PCR reactions were carried out using miRCURY LNA SYBR Green PCR Kit (QIAGEN, 339346) and a let-7a-specific primer (Has-Let-7a-5p miRCURY LNA miRNA PCR Assay, QIAGEN, 339306/YP00205727) in a Bio-Rad iCycler. Gene expression levels were normalized against U6 (U6 snRNA v2 miRURY LNA miRNA PCR Assay, QIAGEN, 339306/YPO2119464, QIAGEN).

[2] = test system: TET3; assay: TET3 protein level (immunoblot/immunofluorescence) in GT1-7 cells; type: cell-based, mouse; conditions: 10 μM
Procedure: Mouse GT1-7 hypothalamic neuronal cell line (Sigma-Aldrich, SCC116), human SH-SY5Y neuronal blastoma cell line (ATCC, CRL-2266), and embryonic mouse hypothalamus cell line N11 (mHypoE-N11) (Cedarlane, CLU107) were purchased and cultured according to the manufacturers' instructions. For siRNA transfection in a 24-well plate scale, cells were seeded at a density of 2×10^5 cells/well the day before transfection. To prepare siRNA transfection solution for each well of cells, 5 pmol of NT siRNA (non-targeting control siRNA, AM4636, Ambion), Tet3 siRNA (siRNA specifically targeting mouse Tet3, 4390815/s101483, Ambion), or TET3 siRNA (siRNA specifically targeting human TET3, 4392420/s47238, Ambion) (Cao et al., 2019, Oncogene, 38:5356-5366; Xu et al., 2020, Cell Rep., 30:1310-1318) were mixed with 25 μl of OPTI-MEM (Gibco, 31985-070) by gentle pipetting (Cao, T. et al., 2019, Oncogene, 38:5356-5366; Xu, Y. et al., 2020, Cell Reports, 30:1310-1318 e5). In parallel, 1.5 μl of Lipofectamine RNAiMAX (Invitrogen, 13778-150) was mixed with 25 μl of OPTI-MEM by gentle pipetting. […]
For Bobcat339 treatment (FIG. 15A and FIG. 15B), GT1-7 cells grown in 24-well plates at 2×10^5 cells/well were incubated with vehicle or Bobcat339 at a final concentration of 10 μM for 6 h, followed by RNA and protein extractions. […] Protein and RNA were isolated 48 h later and analyzed. […]

[3] = test system: HT-22 mouse hippocampal neuronal cells; assay: DNA 5hmC level in HT-22 hippocampal neuronal cells; type: cell-based; conditions: 10 μM, 24 h
Text: It was not unprecedented that compounds initially developed as protein function inhibitors were later serendipitously found to be protein degraders (Bekes, M. et al., 2022, Nature Reviews Drug Discovery, 21(3):181-200).

[4] = test system: TET3; assay: TET3 protein in mouse peritoneal macrophages; type: cell-based; conditions: 10 μM
Procedure: For cultured mouse peritoneal macrophages, cells were primed with 30 ng/ml of TGF-β1 (R&D Systems, 7666-MB0-005) for 48 h (to increase TET3 expression) before Bobcat339 treatment. Bobcat339 (or DMSO) was added at a final concentration of 10 μM, followed by RNA and protein extraction at time points indicated in the figure legends.
Cells were homogenized in situ using a pipette tip in 2×SDS-sample buffer with 10% β-mercaptoethanol at RT followed by heating at 100 °C for 5 min with occasional vortexing. The samples were loaded onto a 4-15% gradient SDS gel (Bio-rad, 456-8086) (10 μL/well) and transferred to nitrocellulose membranes, followed by Western blot analysis. The antibodies used were anti-TET3 (diluted at 1:1000, GeneTex, GTX121453 for human; diluted at 1:1000, Active Motif, 61395 for mouse), anti-TET2 (diluted at 1:1000, Proteintech, 21207-1-AP for human/mouse), anti-TGF-β1 (diluted at 1:1000, Abcam, ab215715 for human), anti-Lin28A (diluted at 1:1000, Cell Signaling, 3978S), and HRP-conjugated anti-GAPDH (dilution 1:5000; Proteintech, HRP-60004). The secondary antibody was HRP-linked Anti-rabbit IgG (dilution 1:10,000; Rockland, 611-1322).

SMILES: Nc1nc(=O)n(-c2cccc(-c3ccccc3)c2)cc1Cl [Bobcat339, 4-Amino-1-[1,1′-biphenyl]-3-yl-5-chloro-2(1H)-pyrimidinone]
- let-7a miRNA levels in disease tissues [1]: increased
- TET3 protein level ([2]; 6 h): a decrease in the protein level of TET3; also recorded: rapidly decreased the level of TET3 protein; also recorded: decreased TET3 expression at the protein level
- TET3 protein level ([2]; 48 h, without exogenous TET3): decreased the level of TET3 protein
- DNA 5hmC levels [3]: decreased DNA 5hmC levels
- TET3 protein [4]: downregulated
